In general, EC50 refers to the concentration needed to bring the measured effect to its halfway point.

Activity calls are given as the source filed them. The rule behind the calls is not given here.

Test [1] has as its system HepG2. The test can be described thus: Recovery of mitochondrial activity in 40% FBS-induced steatosis human HepG2 cells model assessed as increase in number of mitochondria incubated with compound for 24 hrs followed by replacement with steatosis inducing DMEM with 40% FBS medium by MitoTracker Green based fluorescence analysis. In kind it is functional, cell-based. The note with it: dose 0.2-5 µM.

The subject of test [2] is HepG2. In words: Recovery of mitochondrial activity in 40% FBS-induced steatosis human HepG2 cells model assessed as increase in number of mitochondria incubated in steatosis inducing DMEM with 40% FBS medium for 24 hrs followed by compound treatment by MitoTracker Green based fluorescence analysis. The test is classed as functional, cell-based. The note with it: dose 0.2-5 µM.

In test [3] the test system is EA.hy 926. In words: Cytoprotective activity against H2O2-induced toxicity in human EA.hy 926 cells assessed as protective rate pretreated with compound for 4 hrs followed by incubation with H2O2 for 2 hrs by absorbance based analysis. In kind it is functional, cell-based.
For test [4], the target named is T1, Peroxisome proliferator-activated receptor gamma coactivator 1-alpha (Homo sapiens) (UniProt Q9UBK2).
T1 sequence (whole entry): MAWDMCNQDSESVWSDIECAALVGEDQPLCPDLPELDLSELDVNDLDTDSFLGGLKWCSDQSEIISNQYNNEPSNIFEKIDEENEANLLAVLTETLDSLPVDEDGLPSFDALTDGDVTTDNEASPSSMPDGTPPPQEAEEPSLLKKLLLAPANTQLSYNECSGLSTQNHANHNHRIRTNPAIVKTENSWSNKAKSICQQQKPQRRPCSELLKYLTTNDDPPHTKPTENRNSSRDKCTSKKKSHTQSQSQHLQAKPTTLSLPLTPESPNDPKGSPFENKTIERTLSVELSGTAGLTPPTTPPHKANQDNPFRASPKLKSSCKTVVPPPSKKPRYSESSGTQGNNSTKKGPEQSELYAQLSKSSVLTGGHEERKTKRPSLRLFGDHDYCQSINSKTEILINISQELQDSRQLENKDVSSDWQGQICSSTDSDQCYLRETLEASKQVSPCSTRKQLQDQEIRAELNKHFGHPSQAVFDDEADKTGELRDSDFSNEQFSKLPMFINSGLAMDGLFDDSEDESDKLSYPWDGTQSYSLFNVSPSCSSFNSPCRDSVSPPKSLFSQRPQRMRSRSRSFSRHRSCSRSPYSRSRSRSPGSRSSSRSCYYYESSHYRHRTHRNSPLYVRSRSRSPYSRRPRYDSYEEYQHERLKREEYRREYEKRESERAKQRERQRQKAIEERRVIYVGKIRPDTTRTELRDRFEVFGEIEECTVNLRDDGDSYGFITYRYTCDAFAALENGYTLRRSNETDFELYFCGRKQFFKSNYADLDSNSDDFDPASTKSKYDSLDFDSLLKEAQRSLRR
The test can be described thus: Binding affinity to PGC1alpha in human HepG2 cells assessed as increase in thermal stabilization of protein at 320 uM pretreated with compound for 30 mins followed by incubation at 40 to 65 degC for 3 mins by CETSA-WB analysis. In kind it is cell-based. Particulars: filed as activator, time 33.0 min.

Test [5] has as its system Mitochondria. The test can be described thus: Inhibition of mitochondrial dysfunction in 40% FBS-induced steatosis human HepG2 cells model assessed as mitochondria with less swelling and organized mitochondrial cristae at 5 uM incubated for 24 hrs by transmission electron microscopy. In kind it is functional.
The subject of test [6] is Mitochondria. The test can be described thus: Inhibition of mitochondrial dysfunction in 40% FBS-induced steatosis human HepG2 cells model assessed as decrease in lipid vesicle droplets at 5 uM incubated for 24 hrs by transmission electron microscopy. The test is classed as functional.
The subject of test [7] is HepG2. The test can be described thus: Recovery of mitochondrial biogenesis in 40% FBS-induced steatosis human HepG2 cells model assessed as increase in SIRT1 protein expression incubated for 24 hrs by western blot analysis. In kind it is functional, cell-based. Particulars: dose 0.2-5 µM. Background: In western blotting, separated proteins are transferred to a membrane and probed.

Test [8] concerns HepG2. In words: Recovery of mitochondrial biogenesis in 40% FBS-induced steatosis human HepG2 cells model assessed as increase in PGC1alpha protein expression incubated for 24 hrs by western blot analysis. The test is classed as functional, cell-based. The note with it: dose 0.2-5 µM.
Test [9] has as its system HepG2. The test can be described thus: Recovery of mitochondrial biogenesis in 40% FBS-induced steatosis human HepG2 cells model assessed as increase in mitochondrial ND6 protein expression incubated for 24 hrs by western blot analysis. Particulars: dose 0.2-5 µM. The test is classed as functional, cell-based.
Test [10] concerns HepG2. The test can be described thus: Recovery of mitochondrial biogenesis in 40% FBS-induced steatosis human HepG2 cells model assessed as increase in SIRT1 mRNA expression incubated for 24 hrs by qRT-PCR analysis. The test is classed as functional, cell-based. The note with it: dose 0.2-5 µM. (In general: Quantitative PCR measures a nucleic acid by following its amplification.)

The test system of test [11] is HepG2. The test can be described thus: Recovery of mitochondrial biogenesis in 40% FBS-induced steatosis human HepG2 cells model assessed as increase in PGC1alpha mRNA expression incubated for 24 hrs by qRT-PCR analysis. The note with it: dose 0.2-5 µM. The test is classed as functional, cell-based.
The subject of test [12] is HepG2. In words: Recovery of mitochondrial biogenesis in 40% FBS-induced steatosis human HepG2 cells model assessed as increase in TFAM mRNA expression incubated for 24 hrs by qRT-PCR analysis. In kind it is functional, cell-based. Particulars: dose 0.2-5 µM.
Test [13] concerns HepG2. The test can be described thus: Inhibition of oxidative stress in 40% FBS-induced steatosis human HepG2 cells model assessed as reduction in mitochondrial ROS production incubated in steatosis inducing DMEM with 40% FBS medium for 24 hrs followed by compound treatment by MitoSOX Red dye based fluorescence microscopy. In kind it is functional, cell-based. The note with it: Mitochondria, dose 0.2-5 µM.

Test [14] has as its system HepG2. In words: Recovery of energy production in 40% FBS-induced steatosis human HepG2 cells model assessed as upregulation of mitochondrial ATP production incubated with compound for 24 hrs followed by replacement with steatosis inducing DMEM with 40% FBS medium by luciferase based assay. The test is classed as functional, cell-based. Particulars: Mitochondria, dose 0.2-5 µM.

Test [15] concerns HepG2. The test can be described thus: Inhibition of mitochondrial membrane potential dissipation in 40% FBS-induced steatosis human HepG2 cells model assessed as increase in mitochondrial membrane potential incubated with compound for 24 hrs followed by replacement with steatosis inducing DMEM with 40% FBS medium by JC-1 staining based fluorescence microscopy. In kind it is functional, cell-based. Particulars: Mitochondria, dose 0.2-5 µM.

Test [16] relates to HepG2. The test can be described thus: Inhibition of lipid toxicity in 40% FBS-induced steatosis human HepG2 cells model assessed as decrease in triglyceride content at 0.2 to 5 uM incubated in steatosis inducing DMEM with 40% FBS medium for 24 hrs followed by compound treatment. The note with it: dose 0.2-5 µM. The test is classed as functional, cell-based.
The subject of test [17] is HepG2. In words: Inhibition of liver injury in 40% FBS-induced steatosis human HepG2 cells model assessed as decrease in AST level at 0.2 to 5 uM incubated in steatosis inducing DMEM with 40% FBS medium for 24 hrs followed by compound treatment. The test is classed as functional, cell-based. The note with it: dose 0.2-5 µM.
Test [18] has as its system Rattus norvegicus. The test can be described thus: Hepatoprotective activity against high fat diet-fed NAFLD Sprague-Dawley rat model assessed as inhibition of diet-induced body weight gain administered intragastrically via gavage for 4 weeks. In kind it is functional, organism-based. Particulars: dose 12.3-61.4 mg/kg, route ig.
Test [19] has as its system Rattus norvegicus. In words: Hepatoprotective activity against high fat diet-fed NAFLD Sprague-Dawley rat model assessed as decrease in serum total cholesterol content administered intragastrically via gavage for 4 weeks. The test is classed as functional, organism-based. Particulars: dose 12.3-61.4 mg/kg, route ig.
For test [20], the system named is Rattus norvegicus. The test can be described thus: Hepatoprotective activity against high fat diet-fed NAFLD Sprague-Dawley rat model assessed as decrease in serum GDH level administered intragastrically via gavage for 4 weeks. The test is classed as functional, organism-based. Particulars: dose 12.3-61.4 mg/kg, route ig.
In test [21] the test system is HepG2. In words: Induction of mitochondrial biogenesis in human HepG2 cells assessed as mitochondrial COX1 protein expression incubated for 24 hrs in presence of SIRT1 inhibitor, EX527 by western blot analysis. The test is classed as functional, cell-based.
Test [22] has as its system HepG2. In words: Induction of mitochondrial biogenesis in human HepG2 cells assessed as NRF1 mRNA expression incubated for 24 hrs in presence of SIRT1 inhibitor, EX527 by qRT-PCR analysis. In kind it is functional, cell-based.
The subject of test [23] is HepG2. The test can be described thus: Induction of mitochondrial biogenesis in human HepG2 cells assessed as mitochondrial COX1 mRNA expression incubated for 24 hrs in presence of SIRT1 inhibitor, EX527 by qRT-PCR analysis. In kind it is functional, cell-based.

On to `CC(C)(C)c1ccc(C(=O)c2ccc(O)c(O)c2)cc1`, for which the Activity result in test [1], in test [2], in test [7], in [8], in test [9] and in [10] was “Dose-Dependent Effect” throughout. Besides, the Activity result in test [11], in test [12], in test [14], in test [18] and in test [19] was “Dose-Dependent Effect” each time. Besides, the EC50 in test [3] is 0.0723 µM. Also, the result in [4] and in test [20] was Active. Moreover, the inhibition result in [5], in test [6], in [16] and in [17] was “Active” throughout. For the same compound, the inhibition result in test [13] and in test [15] was “Dose-Dependent Effect” in each case. Besides, the outcome in test [21], in [22] and in [23] was inactive.

For the origin of these results see ChEMBL document CHEMBL5537110, “SIRT1-dependent mitochondrial biogenesis supports therapeutic effects of 4-butyl-polyhydroxybenzophenone compounds against NAFLD” (Eur J Med Chem, 2023).
